The source made the active and inactive calls. No cut-off for these calls is given here.
How the values were obtained:
BALB/3T3 [1] = experiment: (§1) Growth inhibition of BALB/c mouse cloned 3T3/A31 cells after 72 hrs by nigrosin assay; assay type: functional, cell-based
[2] = as §1; assay type: functional, cell-based; conditions: BALB/3T3, 72 h
BALB/3T3 [3] = experiment: Growth inhibition of BALB/c mouse cloned 3T3/A31 cells at 0.01 to 100 ug/mL after 72 hrs by nigrosin assay; assay type: functional, cell-based
BALB/3T3 [4] = experiment: Growth inhibition of BALB/c mouse cloned 3T3/A31 cells at 10 to 100 ug/mL after 72 hrs by nigrosin assay; assay type: functional, cell-based
BALB/3T3 [5] = experiment: Growth inhibition of BALB/c mouse cloned 3T3/A31 cells at 100 ug/mL after 72 hrs by nigrosin assay; assay type: functional, cell-based
BALB/3T3 [6] = experiment: Stimulation of BALB/c mouse cloned 3T3/A31 cells growth at 0.01 to 0.1 ug/mL; assay type: functional
BALB/3T3 [7] = experiment: Cytotoxicity against BALB/c mouse cloned 3T3/A31 cells at 1 to 100 ug/mL after 72 hrs by nigrosin assay; assay type: functional, cell-based
BALB/3T3 [8] = experiment: Stimulation of BALB/c mouse cloned 3T3/A31 cells growth at 0.01 to 1 ug/mL; assay type: functional
[9] = Stimulation of BALB/c mouse cloned 3T3/A31 cells proliferation at 0.01 ug/mL; assay type: functional, BALB/3T3
BALB/3T3 [10] = experiment: Stimulation of BALB/c mouse cloned 3T3/A31 cells proliferation at 0.01 to 10 ug/mL; assay type: functional, cell-based

SMILES	Activity (BALB/3T3 [1])	IC50 [2] [µM]	Activity (BALB/3T3 [4])	other results
O=c1cc(-c2ccc(O)cc2)oc2cc(O)cc(O)c12 [APIGENIN]	Dose-dependent effect	141		Activity (BALB/3T3 [3]): Active
O=c1cc(-c2ccccc2)oc2cc(O)c(O)c(O)c12 [BAICALEIN]	Dose-dependent effect	342	Active	
COc1ccc(-c2coc3cc(O)cc(O)c3c2=O)cc1 [BIOCHANIN]	Dose-dependent effect	220	Active	
O=C(O)/C=C/c1ccc(O)c(O)c1 [CAFFEIC ACID]	Dose-dependent effect	554	Active	
Oc1cc(O)c2c(c1)OC(c1ccc(O)c(O)c1)C(O)C2 (configuration not stated) [CATECHIN]	Dose-dependent effect	> 344	Active	
O=C(/C=C/c1ccc(O)c(O)c1)O[C@@H]1C[C@](O)(C(=O)O)C[C@@H](O)[C@H]1O [CHLOROGENIC ACID]	Dose-dependent effect	> 280		Activity (BALB/3T3 [5]): Active; Activity (BALB/3T3 [6]): 5.3%
O=c1cc(-c2ccccc2)oc2cc(O)cc(O)c12 [CHRYSIN]	Dose-dependent effect	248		Activity (BALB/3T3 [7]): Active
O=C(O)/C=C/c1ccccc1 [CINNAMIC ACID]	Dose-dependent effect	671	Active	
O=c1cc(-c2ccccc2)oc2ccccc12 [FLAVONE]	Dose-dependent effect	287		Activity (BALB/3T3 [7]): Active
O=c1c(-c2ccc(O)cc2)coc2cc(O)cc(O)c12 [GENISTEIN]	Dose-dependent effect	184		Activity (BALB/3T3 [6]): 5.3%; Activity (BALB/3T3 [7]): Active
COc1ccc(/C=C/C(=O)O)cc1OC [O,O'-DIMETHYLCAFFEIC ACID]	Dose-dependent effect	> 480	Active	
O=c1c(O)c(-c2ccc(O)c(O)c2)oc2cc(O)cc(O)c12 [QUERCETIN]	Dose-dependent effect	217	Active	Activity (BALB/3T3 [6]): 5.3%
C[C@@H]1O[C@@H](Oc2c(-c3ccc(O)c(O)c3)oc3cc(O)cc(O)c3c2=O)[C@H](O)[C@H](O)[C@H]1O [QUERCITRIN]	Dose-dependent effect	> 223		Activity (BALB/3T3 [5]): Active; Activity (BALB/3T3 [8]): 4.9%
C[C@@H]1O[C@@H](OC[C@H]2O[C@@H](Oc3c(-c4ccc(O)c(O)c4)oc4cc(O)cc(O)c4c3=O)[C@H](O)[C@@H](O)[C@@H]2O)[C@H](O)[C@H](O)[C@H]1O [RUTIN]	Dose-dependent effect	> 164		Activity [9]: 30.4%; Activity (BALB/3T3 [10]): Active

From ChEMBL document CHEMBL1141813, “Activities of plant-derived phenols in a fibroblast cell culture model” (J Nat Prod, 1999)
